The values that follow come from patent US20130303465A1, “Cylodextrin Complexation Methods for Formulating Peptide Proteasome Inhibitors” (ONYX THERAPEUTICS, INC., priority 2012, published 2013).

Some results are limits rather than exact numbers.

Data set [1] in a line: Solubility of carfilzomib as a function of SBECD concentration, pH and temperature. It counts as physicochemical. The note with it: SBECD solutions, citric acid 30 mM, pH 1.5 and pH 3.5, 5° C. and 25° C., 24 hours to equilibrate, FIG. 6. The protocol: The experiments at acidic conditions below the target pH values and titrated to pH 1.5 or 3.5 using aqueous sodium hydroside solution. Measurements of solubilized concentration were those from samples analyzed after 24 hours of time to equilibrate.

Data set [2] is described as follows: Slurry complexation of CFZ-API with SBECD and citric acid: dissolved complexed concentration. It is filed as physicochemical. The method, then: In a 525 L stainless steel jacketed cooled tank controlled to 2° C.-8° C., a suspension of 2.0 kg carfilzomib-API (CFZ-API), 246 kg water for injection (WFI), and 100 kg sulfobutylether beta-cyclodextrin (SBECD) was prepared. Specifically, in the 525 L stainless steel jacketed cooled tank controlled to 2° C.-8° C., 100 kg SBECD was dissolved in 246 kg WFI. The Carfilzomib suspension was then prepared using 2.0 kg of CFZ-API. Mixing was performed using an impeller mixer to maintain suspension of the CFZ-API solids and dissolve the SBECD. In the same vessel, a probe style rotor-stator high shear mixer (homogenizer) was used as well as the low shear impeller. The high shear mixer was operated for approximately 1 hour yielding an even suspension and reduction of particle size for any larger primary particles or agglomerated API. After a suspension was achieved, 1.96 kg of citric acid was added as a 16% aqueous solution. The pH of the solution was then lowered inducing partial solubilization of the CFZ-API followed by and complexation due to the presence of SBECD. Mixing was continued for a further 24 hours with both the impeller and the high shear mixer and a dissolved concentration of CFZ-API of greater than 5.1 mg/mL was achieved. […]

As usually defined, the solubility is the dissolved amount per volume that the medium holds. Low readings indicate little dissolved substance, high ones much dissolved substance.

Consider `CC(C)C[C@H](NC(=O)[C@H](CCc1ccccc1)NC(=O)CN1CCOCC1)C(=O)N[C@@H](Cc1ccccc1)C(=O)N[C@@H](CC(C)C)C(=O)[C@@]1(C)CO1` [carfilzomib], for which, in “physchem”, the solubility was < 10 µg/mL. For the same molecule, the “solubility difference between low and high temperature” value in data set [1] was “No significant differences in solubility”. Moreover, the “effect of higher SBECD concentration on solubility” value in data set [2] (FIG. 3) is “increased the solubility”. In data set [2] (SBECD/WFI suspension plus citric acid, mixing 24 hours, 2-8° C., 400 L batch), the “dissolved concentration of CFZ-API” value is on record as “greater than 5.1 mg/mL”.
